# Reference: US6436978B1, “Guanidinylamino heterocycle compounds useful as α-2 adrenoceptor agonists” (The Procter & Gamble Co., priority 1996, dated 2002)
# How the values were obtained:
# [1] = test system: patient with nasal congestion; experiment: Composition given to a patient with nasal congestion; format: in vivo, human
# Experimental: One tablet is swallowed by a patient with nasal congestion.
# One tablet is chewed and swallowed by a patient with nasal congestion.
# One tablet is placed under the tongue of a patient with nasal congestion and allowed to dissolve.
# One-tenth of a mL of the composition is sprayed from a pump actuator into each nostril of a patient with nasal congestion.
# One-fifth of a mL of the composition is applied as drops from a dropper into each nostril of a patient with nasal congestion.
# One 15 mL dose of the alcohol-free liquid medication is swallowed by a patient with nasal congestion.
# [2] = test system: patient with migraine; experiment: Oral tablet given to a patient with migraine; format: in vivo, human; settings: Example K oral tablet, 4 mg per tablet, one tablet swallowed
# Description: One tablet is swallowed by a patient with migraine.
# [3] = test system: patient with glaucoma; experiment: Topical ophthalmic composition given to a patient with glaucoma, intraocular pressure; format: in vivo, human; settings: Example G topical ophthalmic composition 0.10 % w/v, one-tenth of a mL into each eye
# Experimental: One-tenth of a mL of the composition is administered directly into each eye of a patient with glaucoma.
# [4] = test system: human subject suffering from septic or cardiogenic shock; experiment: Intravenous solution given to a human subject suffering from septic or cardiogenic shock; format: in vivo; settings: Example T solution 10 mg/ml carrier, approximately 2.0 ml intravenously
# Experimental: The above ingredients are mixed, forming a solution. Approximately 2.0 ml of the solution is administered, intravenously, to a human subject suffering from septic or cardiogenic shock.
# [5] = test system: patient with asthma; experiment: Inhalation aerosol given to a patient with asthma; format: in vivo, human; settings: Example F inhalation aerosol 5.0 % w/v, two puffs from a metered-dose inhaler
# Description: Two-puffs of the aerosol composition is inhaled from a metered-dose inhaler by a patient with asthma.
# [6] = test system: patient with nasal congestion and runny nose due to allergic rhinitis; experiment: Oral liquid given to a patient with nasal congestion and runny nose due to allergic rhinitis; format: in vivo, human; settings: Example H oral liquid, 15 mg with chlorpheniramine maleate 4 mg per 15 mL dose, one dose swallowed
# Experimental: One 15 mL dose of the liquid composition is swallowed by a patient with nasal congestion and runny nose due to allergic rhinitis.
Molecule,"nasal congestion ([1]; Example B chewable tablet, 15.0 mg per tablet, one tablet chewed and swallowed)","nasal congestion ([1]; Example D intranasal solution 0.20 % w/v, one-tenth of a mL sprayed into each nostril)","nasal congestion ([1]; Example E intranasal gel 0.10 % w/v, one-fifth of a mL as drops into each nostril)",pain and aura of migraine [2],intraocular pressure [3],symptoms of septic or cardiogenic shock [4],"nasal congestion ([1]; Example A oral tablet, 20.0 mg per tablet, one tablet swallowed)","nasal congestion ([1]; Example C sublingual tablet, 2.00 mg per tablet, one tablet under the tongue)","nasal congestion ([1]; Example J alcohol-free oral liquid, 30 mg per 15 mL dose, one dose swallowed)",asthmatic condition [5],congestion and runny nose [6]
"Cc1c(NNC(=N)N)ccc2cccnc12 [Example 1, [(8-Methylquinolin-7-yl)amino]guanidine]",substantially reduced,substantially diminished,substantially reduced,substantially diminished,substantially reduced,symptoms subside,–,–,–,–,–
[(4-Methylbenzimidazol-5-yl)amino]guanidine [Example 2],–,–,–,–,–,–,substantially diminished,rapidly and substantially diminished,substantially diminished,effectively relieved,effectively reduced
